In patent US20250177393A1, “MODULATORS OF MYC FAMILY PROTO-ONCOGENE PROTEIN” (Nalo Therapeutics, priority 2022, published 2025):
Like-named read-outs stand apart in the source and are kept apart here.

Tests used:
MycC = target: T1, MycC (Homo sapiens, UniProt P01106); experiment: Degradation of MycC protein in L363 cells (JESS/Western blot); format: cell-based; conditions: for Dmax at 0.5 µM: read-out: % Degradation of MycC (L-363) 24 h, 0.5 μM; for Dmax at 1 µM: read-out: % Degradation of MycC (L-363) 24 h, 1 μM; for Dmax at 3 µM: read-out: % Degradation of MycC (L-363) 24 h, 3 μM; for Dmax at 6 µM: read-out: % Degradation of MycC (L-363) 24 h, 6 μM
T1 construct: endogenous in cells; host or cells: L363
T1 sequence (P01106 whole entry): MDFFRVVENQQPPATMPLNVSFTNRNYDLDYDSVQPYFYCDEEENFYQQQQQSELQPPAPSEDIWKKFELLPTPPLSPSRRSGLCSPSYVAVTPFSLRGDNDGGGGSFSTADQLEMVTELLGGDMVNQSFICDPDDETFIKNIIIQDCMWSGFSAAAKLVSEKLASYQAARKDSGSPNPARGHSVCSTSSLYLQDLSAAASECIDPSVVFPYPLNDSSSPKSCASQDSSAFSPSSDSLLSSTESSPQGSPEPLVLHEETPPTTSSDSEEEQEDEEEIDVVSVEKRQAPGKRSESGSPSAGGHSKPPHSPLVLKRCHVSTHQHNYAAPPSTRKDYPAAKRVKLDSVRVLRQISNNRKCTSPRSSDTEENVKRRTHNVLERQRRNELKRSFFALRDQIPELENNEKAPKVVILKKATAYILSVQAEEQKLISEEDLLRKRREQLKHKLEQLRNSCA
Experimental: (§1) For L363 cells (suspension), 1E6 cells were plated into each well of a 6 well plate. For SK—N-BE(2) cells (adherent), 5E5 cells were plated into each well of a 6 well dish. […] All compounds were diluted to 10 mM in DMSO. Cells were treated with the compound for 24 hrs, then for both cell types, media containing cells were removed from wells into a 15 ml centrifuge tube, and remaining adherent SK—N-BE(2) cells were also scraped from the wells into the appropriate tubes. Tubes were centrifuged, cells were washed with PBS then re-centrifuged to pellet cells. A RIPA buffer cocktail was added to the cells on ice for 5 mins. Cell lysates were clarified by centrifugation and stored at −80 degrees until required. BCA assay was performed on each lysate to determine the protein concentration. For validation studies of antibodies, lysates and antibodies were used at a number of concentrations (Lysates: 2, 1, 0.2 mg/ml; Antibodies: 1 in 50, 1 in 200 dilution). Once an appropriate lysate concentration and antibody concentration was determined, samples were screened in the JESS technology (Protein Simple, San Jose, CA—https://www.proteinsimple.com/jess.html). Target protein antibodies (n-myc and c-myc) were detected in the chemiluminescence channel and loading controls (tubulin and GAPDH) were detected using a Near Infra Red (NIR) labeled secondary antibody. For SK—N-EB2 adherent cells, 5E5 cells in 1.9 mls media were plated into 6 well dishes and incubated for 24 hrs. […] Cells were scrapped off the plate, centrifuged, washed with PBS, centrifuged, then a RIPA buffer cocktail added to the cells (100 ul), centrifuged and stored at −80 for later analysis. For L363 suspension cells, 1E6 cells were plated into 24 well dishes (950 ul media) and incubated for 24 hrs. […] Cells were aspirated into tubes, centrifuged, washed with PBS, centrifuged, then a RIPA buffer cocktail added to the cells (100 ul), centrifuged and stored at −80 for later analysis. For Western blot, a BCA (total protein) assay was run on all samples, these were then run in batches of 5 compounds plus control (DMSO) on each Western blot run—n-myc and c-myc were run in separate experiments in the chemiluminescence channel. Both tubulin and GAPDH were run as loading controls in all lanes in the near infra red channel.

MycN = target: T2, MycN (Homo sapiens, UniProt P04198); experiment: Degradation of MycN protein in SK-N-BE(2) cells (JESS/Western blot); format: cell-based; conditions: for Dmax at 0.5 µM: read-out: % Degradation of MycN (SKNBE2) 24 h, 0.5 μM; for Dmax at 1 µM: read-out: % Degradation of MycN (SKNBE2) 24 h, 1 μM; for Dmax at 3 µM: read-out: % Degradation of MycN (SKNBE2) 24 h, 3 μM; for Dmax at 6 µM: read-out: % Degradation of MycN (SKNBE2) 24 h, 6 μM
T2 construct: endogenous in cells; host or cells: SK-N-BE(2)
T2 sequence (P04198 1-464): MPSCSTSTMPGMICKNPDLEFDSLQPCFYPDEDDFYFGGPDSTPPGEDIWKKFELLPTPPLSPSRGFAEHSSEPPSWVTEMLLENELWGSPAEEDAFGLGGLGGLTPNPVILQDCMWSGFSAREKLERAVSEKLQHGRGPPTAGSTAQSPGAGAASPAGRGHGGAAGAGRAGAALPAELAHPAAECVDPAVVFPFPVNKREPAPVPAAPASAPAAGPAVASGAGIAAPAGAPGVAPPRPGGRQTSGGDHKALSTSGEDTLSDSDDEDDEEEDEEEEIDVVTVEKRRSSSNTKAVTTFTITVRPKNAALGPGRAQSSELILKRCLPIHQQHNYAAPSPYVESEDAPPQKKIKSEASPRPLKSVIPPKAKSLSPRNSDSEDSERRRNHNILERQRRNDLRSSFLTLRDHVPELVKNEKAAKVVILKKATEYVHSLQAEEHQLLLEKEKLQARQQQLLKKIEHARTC
Experimental: as §1

Row | Structure (SMILES) | Dmax at 0.5 µM (MycC; L-363 cells, 24 h, 0.5 μM) | Dmax at 1 µM (MycC; L-363 cells, 24 h, 1 μM) | Dmax at 3 µM (MycC; L-363 cells, 24 h, 3 μM) | Dmax at 6 µM (MycC; L-363 cells, 24 h, 6 μM) | Dmax at 0.5 µM (MycN; SKNBE2 cells, 24 h, 0.5 μM) | Dmax at 1 µM (MycN; SKNBE2 cells, 24 h) | Dmax at 3 µM (MycN; SKNBE2 cells, 24 h, 3 μM) | Dmax at 6 µM (MycN; SKNBE2 cells, 24 h, 6 μM) | Dmax at 0.5 µM (MycC; L-363, 24 h) | Dmax at 1 µM (MycC; L-363, 24 h) | Dmax at 3 µM (MycC; L-363, 24 h) | Dmax at 6 µM (MycC; L-363, 24 h) | Dmax at 0.5 µM (MycN; SKNBE2, 24 h) | Dmax at 3 µM (MycN; SKNBE2, 24 h) | Dmax at 6 µM (MycN; SKNBE2, 24 h)
1 | CN1CC2(CCC(Nc3nccc(Nc4cc(C5CC5)[nH]n4)n3)CC2)C1 [Compound 34, N^4-(5-cyclopropyl-1H-pyrazol-3-yl)-N^2-(2-methyl-2-azaspiro[3.5]nonan-7-yl)pyrimidine-2,4-diamine] | < 20% | 50 to 79% | 80 to 100% | 80 to 100% | 80 to 100% | 80 to 100% | 80 to 100% | 80 to 100% | – | – | – | – | – | – | –
2 | CN1CC2(CNc3nccc(Nc4cc(C5CC5)[nH]n4)n3)CC1C2 [Compound 4, N^4-(5-Cyclopropyl-1H-pyrazol-3-yl)-N^2-((2-methyl-2-azabicyclo[2.1.1]hexan-4-yl)methyl)pyrimidine-2,4-diamine] | – | < 20% | 20 to 49% | < 20% | – | – | < 20% | 20 to 49% | – | – | – | – | – | – | –
3 | CN1CCC(C(=O)Nc2nccc(Nc3cc(C4CC4)[nH]n3)n2)CC1 [Compound 35, N-(4-((5-cyclopropyl-1H-pyrazol-3-yl)amino)pyrimidin-2-yl)-1-methylpiperidine-4-carboxamide] | – | – | < 20% | < 20% | 20 to 49% | < 20% | 20 to 49% | 20 to 49% | – | – | – | – | – | – | –
4 | Cn1cc(C(=O)N2CC3(CC(Nc4nccc(Nc5cc(C6CCCC6)[nH]n5)n4)C3)C2)nn1 [Compound 39, (6-((4-((5-Cyclopentyl-1H-pyrazol-3-yl)amino)pyrimidin-2-yl)amino)-2-azaspiro[3.3]heptan-2-yl)(1-methyl-1H-1,2,3-triazol-4-yl)methanone] | 20 to 49% | 20 to 49% | 20 to 49% | 80 to 100% | 20 to 49% | < 20% | 80 to 100% | 80 to 100% | – | – | – | – | – | – | –
5 | CN1CC2(CC(Nc3nccc(Nc4cc(C5CC5)[nH]n4)n3)C2)C1 [Compound 36, N^4-(5-cyclopropyl-1H-pyrazol-3-yl)-N^2-(2-methyl-2-azaspiro[3.3]heptan-6-yl)pyrimidine-2,4-diamine] | 20 to 49% | 50 to 79% | 20 to 49% | 50 to 79% | < 20% | < 20% | 20 to 49% | 80 to 100% | – | – | – | – | – | – | –
6 | CN1CCC(CNc2nccc(Nc3cc(C4CCCC4)[nH]n3)n2)CC1 [Compound 1] | – | – | < 20% | < 20% | 20 to 49% | < 20% | 20 to 49% | 80 to 100% | – | – | – | – | – | – | –
7 | CN1CC2(CCC(N(C)c3nccc(Nc4cc(C5CC5)[nH]n4)n3)CC2)C1 [Compound 49, N4-(5-Cyclopropyl-1H-pyrazol-3-yl)-N2-methyl-N2-(2-methyl-2-azaspiro[3.5]nonan-7-yl)pyrimidine-2,4-diamine] | 50 to 79% | 80 to 100% | 80 to 100% | 80 to 100% | 50 to 79% | 80 to 100% | 80 to 100% | 80 to 100% | – | – | – | – | – | – | –
8 | CN1CC2(CC(Nc3nccc(Nc4cc(C5CCCC5)[nH]n4)n3)C2)C1 [Compound 38, N^4-(5-cyclopentyl-1H-pyrazol-3-yl)-N^2-(2-methyl-2-azaspiro[3.3]heptan-6-yl)pyrimidine-2,4-diamine] | 20 to 49% | 50 to 79% | 20 to 49% | 50 to 79% | 20 to 49% | 50 to 79% | 80 to 100% | 80 to 100% | – | – | – | – | – | – | –
9 | CN1CCC(Nc2nccc(Nc3cc(C4CCCC4)[nH]n3)n2)CC1 [Compound 31] | – | – | – | – | – | – | – | – | 50 to 79% | 50 to 79% | 80 to 100% | 80 to 100% | < 20% | 80 to 100% | 80 to 100%
10 | CN1CC2(CCC(Nc3nccc(Nc4cc(C5CCCC5)[nH]n4)n3)CC2)C1 [Compound 20, N^4-(5-Cyclopentyl-1H-pyrazol-3-yl)-N^2-(2-methyl-2-azaspiro[3.5]nonan-7-yl)pyrimidine-2,4-diamine] | 80 to 100% | 80 to 100% | 80 to 100% | 80 to 100% | 80 to 100% | 80 to 100% | 80 to 100% | 80 to 100% | – | – | – | – | – | – | –
11 | F[C@H]1CNCC[C@H]1Nc1nccc(Nc2cc(C3CC3)[nH]n2)n1 [Compound 41, N4-(5-Cyclopropyl-1H-pyrazol-3-yl)-N2-[(3S,4R)-3-fluoro-4-piperidyl]pyrimidine-2,4-diamine] | – | – | – | 80 to 100% | < 20% | < 20% | 20 to 49% | 80 to 100% | – | – | – | – | – | – | –
12 | c1cc(Nc2cc(C3CC3)[nH]n2)nc(NC2CCNCC2)n1 [Compound 29] | 50 to 79% | 80 to 100% | 80 to 100% | 80 to 100% | – | < 20% | 80 to 100% | 80 to 100% | – | – | – | – | – | – | –
13 | c1cc(Nc2cc(C3CCCC3)[nH]n2)nc(NC2CCNCC2)n1 [Compound 32, N^4-(5-cyclopentyl-1H-pyrazol-3-yl)-N^2-(piperidin-4-yl)pyrimidine-2,4-diamine] | 50 to 79% | 50 to 79% | 80 to 100% | 80 to 100% | – | 50 to 79% | 80 to 100% | 80 to 100% | – | – | – | – | – | – | –
